# Test results from patent US9963445B2, “Chemical compounds” (SYNGENTA PARTICIPATIONS AG, priority 2013, dated 2018).
# Columns and labels:
# Type in all cases: in vivo
# Abutilon theophrasti [1] = assay: Pre-emergence herbicidal activity, glasshouse pot test; settings: pre-emergence spray, rate 1000 g/ha, evaluated after 13 days, scale 0-5
# Method in brief: (§1)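 Seeds sown in standard soil were sprayed one day after sowing, before emergence, with compound formulated in acetone/water (50:50) plus 0.5% Tween 20. Plants were grown at 24/16 °C day/night, 14 h light, 65% humidity, watered twice daily, and damage was scored after 13 days (0 = none, 5 = total).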
# Alopecurus myosuroides [2] = assay: as above; settings: pre-emergence spray, rate 1000 g/ha, evaluated after 13 days, scale 0-5
# Method in brief: as §1
# Amaranthus retroflexus [3] = assay: as above; settings: pre-emergence spray, rate 1000 g/ha, evaluated after 13 days, scale 0-5
# Method in brief: as §1
# Echinochloa crus-galli [4] = assay: as above; settings: pre-emergence spray, rate 1000 g/ha, evaluated after 13 days, scale 0-5
# Method in brief: as §1
# Setaria faberi [5] = assay: as above; settings: pre-emergence spray, rate 1000 g/ha, evaluated after 13 days, scale 0-5
# Method in brief: as §1
# zea mays [6] = assay: as above; settings: pre-emergence spray, rate 1000 g/ha, evaluated after 13 days, scale 0-5
# Method in brief: as §1
# Abutilon theophrasti [7] = assay: Post-emergence herbicidal activity, glasshouse pot test; parameters: key: 0 = no damage to plant, 5 = total damage to plant; settings: Application post-emergence, rate 1000 g/ha, evaluated after 13 days
# Method in brief: (§2)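 Damage rated 0 (none) to 5 (total) 13 days after spraying. Plants were treated post-emergence at 8 days after sowing, using an acetone/water (50:50) formulation with 0.5% Tween 20 diluted to an aqueous spray.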
# Alopecurus myosuroides [8] = assay: as above; parameters: key: 0 = no damage to plant, 5 = total damage to plant; settings: Application post-emergence, rate 1000 g/ha, evaluated after 13 days
# Method in brief: as §2
# Amaranthus retroflexus [9] = assay: as above; parameters: key: 0 = no damage to plant, 5 = total damage to plant; settings: Application post-emergence, rate 1000 g/ha, evaluated after 13 days
# Method in brief: as §2
# Echinochloa crus-galli [10] = assay: as above; parameters: key: 0 = no damage to plant, 5 = total damage to plant; settings: Application post-emergence, rate 1000 g/ha, evaluated after 13 days
# Method in brief: as §2
# Setaria faberi [11] = assay: as above; parameters: key: 0 = no damage to plant, 5 = total damage to plant; settings: Application post-emergence, rate 1000 g/ha, evaluated after 13 days
# Method in brief: as §2
# zea mays [12] = assay: as above; parameters: key: 0 = no damage to plant, 5 = total damage to plant; settings: Application post-emergence, rate 1000 g/ha, evaluated after 13 days
# Method in brief: as §2
SMILES,"ABUTH damage score, application pre-emergence (Abutilon theophrasti [1])","ALOMY damage score, application pre-emergence (Alopecurus myosuroides [2])","AMARE damage score, application pre-emergence (Amaranthus retroflexus [3])","ECHCG damage score, application pre-emergence (Echinochloa crus-galli [4])","SETFA damage score, application pre-emergence (Setaria faberi [5])","ZEAMX damage score, application pre-emergence (zea mays [6])",ABUTH herbicidal damage score (Abutilon theophrasti [7]),ALOMY herbicidal damage score (Alopecurus myosuroides [8]),AMARE herbicidal damage score (Amaranthus retroflexus [9]),ECHCG herbicidal damage score (Echinochloa crus-galli [10]),SETFA herbicidal damage score (Setaria faberi [11]),ZEAMX herbicidal damage score (zea mays [12])
CC1=C(Cl)C(=O)N(c2ncc(F)cc2F)C1O (stereo not drawn) [AF62],2,0,2,0,0,0,2,1,0,1,1,0
CC1=C(Cl)C(=O)N(c2ncc(C(F)(F)F)cc2F)C1O (stereo not drawn) [AF63],0,0,0,0,0,0,1,1,0,1,1,0
CC1=C(Cl)C(=O)N(c2cc(OC(F)(F)F)ccn2)C1O (stereo not drawn) [AF74],2,3,5,4,4,2,5,4,5,5,5,2
CCCC1=C(Cl)C(=O)N(c2cc(C(F)(F)F)ccn2)C1O (stereo not drawn) [AF81],4,3,5,5,2,2,5,4,5,5,4,2
CC(C)(C)C1=C(Cl)C(=O)N(c2cc(C(F)(F)F)ccn2)C1O (stereo not drawn) [AF82],0,0,0,0,0,1,0,0,0,3,0,2
CC(C)C1=C(Cl)C(=O)N(c2cc(C(F)(F)F)ccn2)C1O (stereo not drawn) [AF83],0,2,2,2,1,1,2,3,0,2,0,0
"CCC1=C(Cl)C(=O)N(c2cc(C(F)(F)F)ccn2)C1O (stereo not drawn) [AF84, 4-chloro-3-ethyl-2-hydroxy-1-[4-(trifluoromethyl)-2-pyridyl]-2H-pyrrol-5-one]",2,3,5,5,2,0,5,5,4,5,5,3
